{"source": "patent US20250114455A1", "about": "“RADIOSENSITIZING COMPOSITIONS AND METHODS OF USE THEREOF” (University of Georgia Research Foundation, Inc., priority 2022, published 2025)", "key": {"[1]": {"assay": "serum calcium level", "type": "in vivo, balb/c mice", "details": "200 μg/kg injected, healthy mice; tolerated level for mice 8.0-11.5 mg/dl", "method": "Blood samples were collected at 0, 2, 6, and 24 h for analysis."}, "[2]": {"molecular_target": "NTSR1 (Homo sapiens, UniProt P30989)", "sequence (P30989 whole entry)": "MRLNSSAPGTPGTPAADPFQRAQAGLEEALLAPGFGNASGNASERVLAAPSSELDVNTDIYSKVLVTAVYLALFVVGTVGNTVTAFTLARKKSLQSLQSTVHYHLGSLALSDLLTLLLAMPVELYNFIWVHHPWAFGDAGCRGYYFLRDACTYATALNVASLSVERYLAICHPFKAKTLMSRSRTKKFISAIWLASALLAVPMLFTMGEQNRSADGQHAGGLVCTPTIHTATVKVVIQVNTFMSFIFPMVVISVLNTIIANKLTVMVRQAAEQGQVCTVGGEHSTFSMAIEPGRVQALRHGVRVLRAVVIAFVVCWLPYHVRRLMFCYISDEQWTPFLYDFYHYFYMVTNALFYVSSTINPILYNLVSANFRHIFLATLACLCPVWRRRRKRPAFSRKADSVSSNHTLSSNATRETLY", "details": "compared to wildtype NTS; cited from earlier work"}, "[3]": {"details": "compared to wildtype NTS; cited from earlier work"}, "[4]": {"assay": "MTT cell viability assay", "type": "cell-based, murine", "details": "mouse, CT26 cells, no radiation, read-out: IC50 (cytotoxicity)", "experimental": "(§1) CT26, a murine colorectal carcinoma cell line, was cultured following the protocol provided by the ATCC. A complete growth medium was prepared by adding 50 mL fetal bovine serum (FBS; Atlanta Biologicals, Cat #S11150) and 5 mL penicillin-streptomycin (Corning Cat #30-002-CI) to 450 mL of RPMI 1640 medium (Corning, Cat #10-104-CV). The cells were sub-cultured every three days and stored in a Thermo Scientific Heracell 150i incubator at 37° C. A day before the experiment, the cells were washed with PBS and collected by trypsinization (37° C., 2 min) followed by neutralization with cell culture medium and centrifugation (1200 rpm, 5 min). The supernatant was removed, and cells were dispersed in new cell culture medium. The cell density was counted using a hemocytometer (Hausser Scientific, Cat #3200) to seed the desired number of cells on the experimental plate(s).\n(§2) The cell viability was studied with CT26 cells using the standard MTT assays. Briefly, CT26 cells (10,000 cells per well) were seeded on clear 96-well plates (Corning Costar, Cat #3599). […] 20 μL of 10 mg/mL 3-(4,5-Dimethylthiazolyl-2)-2,5-diphenyltetrazolium bromide (MTT) solution was added into each well. After 4 h incubation at 37° C. and 5% CO2, the solution was discarded from each well, and 100 μL of DMSO was added to each well resulting in purple suspensions. The absorbance at 570 nm was measured using a BioTek Synergy MX multi-mode microplate reader."}, "[5]": {"system": "CT26 cells", "assay": "MTT cell viability assay", "type": "cell-based, murine", "details": "24 h; for toxicity / viability drop in the absence of radiation: 7-DHC concentration below 12.5 μg/mL", "experimental": "as §1, §2"}, "[6]": {"assay": "LC/MS analysis of autooxidation and lipid peroxidation", "details": "320 kV, 5 Gy", "experimental": "Samples were generated by mixing solutions of 10 mg/mL 7-DHC, or 5 mg/mL DHCEO in 5 mL solvent containing 4 mL CH3CN+1 mL Mil-Q-H2O (or 1 mL H2O2). Samples were treated with either PBS or 5 Gy IR followed by incubation for 24 h. The lipid sample was prepared by using 16:0-18:2 PC mixed with 7-DHC at a 3:1 mole ratio in 2:1 v/v of CHCl3:MeOH solution. The solvent was then rotor evaporated and the mixture was rehydrated in 1 mL Mil-Q-H2O. Samples were subjected to LC/MS analysis. Liquid chromatography was performed on an Applied Biosystems 140 B solvent delivery system using water with 0.1% formic acid as solvent A and acetonitrile as solvent B. The linear solvent gradient was from 70% B to 95% B over 20 minutes at a flow rate of 50 μl/min. A Thermo Hypersil-Keystone 1×150 mm Biobasic-4 column with 5 μm particle size and 300 A pore size was used. The effluent was directed into a Bruker Daltonics Esquire 3000 plus ion trap mass spectrometer equipped with an atmospheric pressure chemical ionization (electrospray ionization for the lipid sample) source. The instrument was scanned in enhanced mode from 340-500 m/z with the capillary at 4 KV. The dry as temperature was held at 300 degrees C. at a flow rate of 41/min nitrogen. The nebulizer was set to 15 PSI of nitrogen. The vaporizer temperature was held at 380 degrees C."}, "[7]": {"details": "cited from earlier work"}}, "note": "Where a SMILES comes first, the peptide text is derived from it. [ ]: non-standard residue; d: D form. The star is where a group is joined. ξ: configuration not given here. ξGly(4-Pip(1-amidino)) = N=C(N)N1CCC(C(N)C(=O)O)CC1; ξGly(piperidin-4-yl) = NC(C(=O)O)C1CCNCC1; ξTle = CC(C)(C)C(N)C(=O)O; ξP = O=C(O)C1CCCN1; X1 = CC(CS)C(=O)*"}
{"smiles": "C=C1/C(=C\\C=C2/CCC[C@]3(C)[C@@H]([C@H](C)CCCC(C)(C)O)CC[C@@H]23)C[C@@H](O)C[C@@H]1O", "note": "[calcitriol]", "values": [{"measurement": "serum calcium", "setting": "[1]", "result": 17.5, "unit": "mg/dL"}]}
{"smiles": "CC(C)C[C@H](NC(=O)C(NC(=O)[C@H](Cc1ccc(O)cc1)NC(=O)C1CCCN1C(=O)[C@H](CCCNC(=N)N)NC(=O)C(NC(=O)C1CCCN1C(=O)C(NC(=O)C(C)CS)C1CCNCC1)C1CCN(C(=N)N)CC1)C(C)(C)C)C(=O)O", "note": "(stereo partly drawn) [NTSmut] (X1-[ξGly(piperidin-4-yl)][ξP][ξGly(4-Pip(1-amidino))]R[ξP]Y[ξTle]L-OH)", "values": [{"measurement": "avidity to NTSR1", "setting": "[2]", "result": "nanomolar"}, {"measurement": "biological stability", "setting": "[3]", "result": "much greater biological stability"}]}
{"smiles": "CC(C)CCC[C@@H](C)[C@H]1CC[C@H]2C3=CC=C4C[C@@H](O)CC[C@]4(C)[C@H]3CC[C@]12C", "note": "[7-DHC, 7-dehydrocholesterol]", "values": [{"measurement": "IC50 at 24 h", "setting": "[4]", "result": 71.4, "unit": "µg/mL"}, {"measurement": "toxicity / viability drop in the absence of radiation", "setting": "[5]", "result": "Neither 7-DHC nor 7-DHC@PLGA NPs caused significant viability drop"}, {"measurement": "toxicity / viability drop in the absence of radiation", "setting": "[5]; listed as free 7-DHC", "result": "minimal toxicity"}, {"measurement": "conversion after radiation (LC/MS)", "setting": "[6]", "result": "converted to oxysterols"}, {"measurement": "solubility in water", "setting": "[7]", "result": "poorly soluble in water"}]}
{"smiles": "NCCC(=O)N[C@@H](Cc1cnc[nH]1)C(=O)O", "note": "[carnosine, reference compound]", "values": [{"measurement": "effect of co-incubation on toxicity induced by 7-DHC@PLGA NPs+IR", "setting": "[5]; MTT, IR 5 Gy", "result": "mitigated toxicity"}]}
